Experimental data published in patent EP1837033A1, “REMEDY FOR DIABETES CONTAINING Cdk5 INHIBITOR” (Tomizawa, Kazuhito, priority 2004, dated 2006).

Tests used:
MIN6 cells [1] = test: Insulin secretion of MIN6 cells in KRB, radioimmunoassay (Example 4); type: cell-based, rat; details: for high-glucose-stimulated insulin secretion: preincubated 30 minutes, stimulated 1 hour with 16.7 mM glucose
islets of Langerhans = test: Insulin secretion from isolated islets of Langerhans; type: cell-based, rats; details: for insulin secretion in islets of Langerhans (insulin secretion percentage): low glucose 3.3 mM, 200 nM glibenclamide, 10 µM olomoucine, fig. 5; for insulin secretion: 10 µM, Ringer solution with a high glucose concentration, fig. 4
Experimental: In accordance with Goto et al. (Transplantaion, vol. 43, pp. 725 to 730, 1987), islets of Langerhans were isolated from 6-week-old male Wister rats. The rats were etherized so as to be subjected to thoracotomy. The common bile duct of each rat was removed and a collagenase solution (320 U/ml, Sigma) was slowly injected into the pancreas. Then, the swollen pancreas was excised. The collagenase-containing pancreas was digested at 37°C in a water bath for 30 minutes, followed by dispersion with the use of a pipet. Thereafter, islets of Langerhans were isolated based on the concentration gradient of a Ficoll solution (Amersham Pharmacia). The islets of Langerhans were incubated while being kept at 37°C for 30 minutes in a Ringer solution (119 mM sodium chloride, 4.74 mM potassium chloride, 1.19 mM sodium dihydrogen phosphate, 25 mM sodium bicarbonate, 10 mM HEPES, 2.54 mM calcium chloride, 1.19 mM magnesium chloride, and 0.2% BSA) saturated with a mixed gas of 95% O2 and 5% CO2.
30 minutes after replacement, insulin contained in each stimulation solution was detected using an insulin detection kit (Ab Bead Insulin, Eiken Chemical Co., Ltd.) in accordance with protocols of the kit. The experiment was conducted for each concentration group (n = 6).
30 minutes after replacement, insulin contained in each stimulation solution was using an insulin detection kit (Ab Bead Insulin, Eiken Chemical Co., Ltd.) in accordance with protocols for the kit.
Then, controls (n = 6), samples A (n = 6), samples B (n = 6), and samples C (n = 6) were prepared. […] Further, islets of Langerhans were subjected to ultrasonication for cell disruption, and insulin contents of islets of Langerhans were detected using an insulin detection kit (Ab Bead Insulin, Eiken Chemical Co., Ltd.) in accordance with protocols for the kit in a manner similar to that used above.
In addition, the insulin secretion percentage was calculated by the following formula. Insulin secretion percentage; = (Amount of insulin secreted(μU/ml))/(Amount of insulin in islets of Langerhans(μU/ml)) × 100(%) [formula]

MIN6 cells [2] = test: Insulin secretion of MIN6 cells in Ringer solution (Example 3); type: cell-based, rat; details: 17.6 mM glucose, 20 µM, 2 hours, fig. 3
Experimental: MIN6 cells capable of secreting insulin (provided by Professor Susumu Seino, Doctral Program in Advanced Biomedical Applications, Department of Cellular and Molecular Medicine, Graduate School of Medicine, Chiba University, 1-33, Yayoi-cho, Inage-ku, Chiba-shi, Chiba, Japan) were cultured in accordance with the method of Mae et al. (American Journal of Physiological Endocrinal Metabolism, 2000, vol. […], pp. 773 to 781). MIN6 cells (5 × 10^5) were in a DMEM medium (GIBCO) and on a 35-mm culture dish (Corning Incorporated), followed by culture for 2 days in an incubator (5% CO2, SANYO).
After culture for 2 hours, insulin contained in medium was detected using an insulin detection kit (Ab Insulin, Eiken Chemical Co., Ltd.) in accordance with protocols for the kit.

[3] = tested on: diabetes mouse models KK-Ay; test: Hypoglycemic effects in diabetes mouse models KK-Ay; type: in vivo; details: KK-Ay mice, fig. 13
Experimental: 8-week-old ale KK-Ay mice (32 individuals, CLEA Japan, Inc.) were divided into groups (8 individuals each) with the proviso that there would be no differences among groups in terms of blood glucose levels, Hypoglycemic effects of roscovitine (LC Laboratories), which is a CDK5 inhibitor, were examined.
In order to prepare roscovitine at doses of 1 mg/kg, 10 mg/kg, and 100 mg/kg, a suspension (0.5% methylcellulose/physiological saline solution) was used. Then, subcutaneous administration of roscovitine was carried out once daily for 2 consecutive weeks. A solvent alone was administered to a control group. Blood glucose levels were measured one day before day 0 and on days 3, 7, 10, and 14 with the use of a blood glucose monitor (Free Style, NIPRO).
In fig. 13, the unit of the vertical axis is indicated by "mg/dL." In fig. 14, the unit of the vertical axis is indicated by "g."

Cdk5 = Cdk5 (Homo sapiens, UniProt Q00535); details: cited from earlier work
Cdk5, sequence (Q00535 whole entry, species assumed): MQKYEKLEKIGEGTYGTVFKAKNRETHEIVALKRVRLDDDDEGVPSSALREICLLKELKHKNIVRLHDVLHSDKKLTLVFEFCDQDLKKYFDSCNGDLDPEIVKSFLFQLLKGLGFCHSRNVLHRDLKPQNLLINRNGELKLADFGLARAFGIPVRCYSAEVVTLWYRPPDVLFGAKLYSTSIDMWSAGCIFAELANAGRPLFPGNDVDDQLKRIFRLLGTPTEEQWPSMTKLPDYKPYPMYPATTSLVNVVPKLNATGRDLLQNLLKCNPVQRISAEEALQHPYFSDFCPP
Cdk5, sequence (Q15078 whole entry partner, species assumed): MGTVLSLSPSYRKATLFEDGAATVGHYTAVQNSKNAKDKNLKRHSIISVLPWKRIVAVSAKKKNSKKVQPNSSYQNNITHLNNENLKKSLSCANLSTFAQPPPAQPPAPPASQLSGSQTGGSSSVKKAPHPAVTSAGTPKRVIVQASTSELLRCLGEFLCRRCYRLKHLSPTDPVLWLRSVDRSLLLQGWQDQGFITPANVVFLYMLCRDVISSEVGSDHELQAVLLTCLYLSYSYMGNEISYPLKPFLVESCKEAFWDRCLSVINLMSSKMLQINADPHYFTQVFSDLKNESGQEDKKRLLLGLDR

MIN6 cells [4] = test: Ca2+ imaging (fura-2) in MIN6 cells; type: cell-based, rat; details: 50 µM olomoucine
Experimental: MIN6 cells were cultured in a DMEM containing 15% fetal bovine serum, 25 mM glucose, […] 2-mercaptoethanol, and 2 mM glutamine (Lilla, V. et al. Endocrinology 144, 1368-1379 (2003); and Minami, K. et al. Am. J. Physiol. Endocrinol. Metab. 279, 773-781 (2000)). The cells (1 × 10^6) were seeded on a 35-mm glass bottom dish (IWAKI, Tokyo, Japan), followed by cell proliferation for 48 hours. For Ca^2+ imaging, the cells were preincubated at 37°C for 2 hours in a modified Krebs-Ringer bicarbonate HEPES buffer solution (KRB: 125 mM Nacl, 4.74 mM KCl, 1 mM CaCl2, […] KH2PO4, 5 mM NaHCO3, 25 mM HEPES (pH 7.4), and 0.1% BSA) containing 2.8 mM glucose. […] The resulting solution was replaced with KRB containing 17.6 mM glucose or KRB containing 100 nM glibenclamide. The Ca^2+ level of the cells was using an Axiovert 200 inverted microscope (Carl Zeiss Microlmaging) by a dual excitation wavelength method (340/380).
After washing, the cells were stimulated with 17.6 mM glucose (figs. 7a-1 and 7a-2) or 100 nM glibenclamide (figs. 7b-1 and 7b-2). Ca^2+ concentrations were presented as percentages of 340/380 nm fluorescent emission. The graphs (fgs. 7a-1 and 7b-1) show representative traces of changes in Ca^2+ concentration. The graphs (figs. 7a-2 and 7b-2) show the maximum Ca^2+ influxes. Data for each of 20 to 30 cells were collected after each experiment. The mean value of the total values was calculated and normalized every 3 to 4 experiments (*P < 0.01).

[5] = tested on: α1C subunit at Ser783 of L-VDCC; test: Phosphorylation of Ser783 of the L-VDCC α1C subunit in MIN6 cells (immunoprecipitation, Western blotting); type: cell-based, rat; details: MIN6 cells treated with 50 µM olomoucine, fig. 8d
Experimental: Recombinant cDNA encoding LoopII·III of a human α1C subunit of VDCC was subcloned into pGEX6P (Amersham Bioscience). Serine783 was mutated into alanine according to the manufacturer's instructions (Stratagene). Purified recombinant proteins were phosphorylated in vitro with the use of Cdk5/p35 (Upstate) by a conventional method (Tomizawa, K. et al. J. Cell. Biol. 163, 813-824 (2003)). […] The expression of the phosphorylated α1C subunit at Ser783 was measured using phosphorylation-specific antibodies obtained from serum of a rabbit to which CLARTApSPEKK peptide had been injected. The total amount of the subunits was detected by Western blotting analysis with the use of anti-α1C subunit antibodies (Chemicon).
Immunoprecipitation of Cav1.2 was carried out. Phosphorylation of serine 783 was measured by Western blotting.

L-VDCC = test: Whole-cell Ca2+ currents via VDCCs of MIN6 cells (electrophysiology); type: cell-based, rat; details: 50 µM olomoucine

COc1ccc(Cl)cc1C(=O)NCCc1ccc(S(=O)(=O)NC(=O)NC2CCCCC2)cc1 [glibenclamide]
insulin secretion (MIN6 cells [1]; KRB high glucose 17.6 mM, fig. 6f): 412.5 ± 35.7 µg/h | insulin secretion (MIN6 cells [1]; KRB low glucose 2.8 mM, fig. 6e): 116.3 ± 1.0 µg/h | insulin secretion in islets of Langerhans (insulin secretion percentage) (islets of Langerhans; 30 minutes): significant increase in insulin secretion

CC[C@H](CO)Nc1nc(NCc2ccccc2)c2ncn(C(C)C)c2n1 [roscovitine]
insulin secretion of MIN6 cells (MIN6 cells [2]): promoted | high-glucose-stimulated insulin secretion (MIN6 cells [1]; fig. 6c): also confirmed | blood glucose levels ([3]; 1 mg/kg subcutaneous once daily for 2 consecutive weeks): obvious hypoglycemic effects were not observed | blood glucose levels ([3]; 10 mg/kg subcutaneous once daily for 2 consecutive weeks): obvious hypoglycemic effects were not observed | blood glucose levels ([3]; 100 mg/kg subcutaneous once daily for 2 consecutive weeks): statistically significant decreases

iso-olomoucine
Cdk5 inhibitory effect (Cdk5): does not have a Cdk5 inhibitory effect | insulin secretion (MIN6 cells [1]; 20 µM, fig. 6d): did not influence insulin secretion | insulin secretion (islets of Langerhans): did not promote insulin secretion at all

Cn1cnc2c(NCc3ccccc3)nc(NCCO)nc21 [olomoucine]
Ca2+ influxes in the absence of glucose and glibenclamide (MIN6 cells [4]): did not influence | Ca2+ influxes induced by glibenclamide (MIN6 cells [4]; 100 nM glibenclamide, maximum Ca2+ influx normalized, figs. 7b-1 and 7b-2): 129 ± 4.5% | Ca2+ influxes induced by glucose (MIN6 cells [4]; 17.6 mM glucose, maximum Ca2+ influx normalized, figs. 7a-1 and 7a-2): 114.4 ± 2.1% | insulin secretion of MIN6 cells (MIN6 cells [2]): action of promoting insulin secretion | phosphorylation of Ser783 [5]: decrease in phosphorylation | insulin secretion under low glucose conditions (MIN6 cells [1]; 2.8 mM glucose, 1 hour, fig. 6c): insulin secretion was not promoted | insulin secretion induced by forskolin (MIN6 cells [1]; effect of 50 µM olomoucine, 10 µM forskolin, 2.8 mM glucose, P > 0.05, fig. 6h): did not influence | insulin secretion induced by glibenclamide (MIN6 cells [1]; effect of olomoucine, low glucose 2.8 mM, fig. 6e): significantly promoted | high-glucose-stimulated insulin secretion (MIN6 cells [1]; fig. 6c): promoted high-glucose-stimulated insulin secretion in a dose-dependent manner | insulin secretion (islets of Langerhans): significantly promoted insulin secretion | insulin secretion of islets of Langerhans (islets of Langerhans; 3.3 mM glucose (low), olomoucine at different concentrations, 30 minutes, fig. 1): had no influence at all | insulin secretion levels (islets of Langerhans; 17.3 mM glucose (high), olomoucine at different concentrations, 30 minutes, versus absence of olomoucine, fig. 2): significantly increased | secretion at low glucose levels (islets of Langerhans; isolated islets of Langerhans, fig. 9a): did not influence | insulin secretion in islets of Langerhans (insulin secretion percentage) (islets of Langerhans; 30 minutes): did not influence insulin secretion | glucose-stimulated insulin secretion in isolated islets of Langerhans (islets of Langerhans; olomoucine at concentrations shown in fig. 9a): promoted glucose-stimulated insulin secretion in a dose-dependent manner | Peak Ca2+ currents (L-VDCC; depolarization to 10 mV, control cells -15.1 ± 1.67 A/F): -20.1 ± 1.59 A/F | inward Ca2+ currents (L-VDCC; step pulses from -40 mV to +60 mV, fig. 7c): enhanced inward Ca^2+ currents

CC1=NS(=O)(=O)c2cc(Cl)ccc2N1 [diazoxide]
Olomoucine-dependant promotion of high-glucose-stimulated insulin secretion (MIN6 cells [1]; 100 µM diazoxide, 50 µM olomoucine, 17.6 mM glucose, fig. 6g): completely suppressed

C=C[C@@]1(C)CC(=O)[C@]2(O)[C@@]3(C)[C@@H](O)CCC(C)(C)[C@@H]3[C@H](O)[C@H](OC(C)=O)[C@@]2(C)O1 [forskolin]
forskolin-stimulated insulin secretion (MIN6 cells [1]; 10 µM forskolin, 50 µM olomoucine, KRB 2.8 mM glucose, fig. 6h, unit not given): 122.7 ± 9.3
